Data: patent US7519519B1, “Signature projection score” (Entelos, Inc., priority 2002, dated 2009)
Like-named read-outs stand apart in the source and are kept apart here. Marks after values point to notes of the source that are not given here.

Columns and labels:
[1] = test system: Leukocyte Depletion Signature; assay: Signature Projection Score against the Leukocyte Depletion Signature, bone marrow gene expression data; conditions: maximum over treatments, normalized so highest training treatment = 100, * = p < 0.01, ** = p < 0.001
Description: Using only the genes in the signature, the amount and direction of gene expression changes in an experimental sample are compared (in terms of log ratio of expression signals) against a reference gene expression change (computed as the average over a characterizing set of treatments in our database). The sum over genes of the product of these two differences is computed, and normalized such that the highest score of any of the characterizing treatments when calculated in this way is 100.
After determination of the MTD and FED for a compound, each compound was dissolved in a vehicle for administration on day 1 of the study (additional daily doses were stored as frozen aliquots from this initial formulation). Each compound was administered to three individual male Sprague-Dawley rats for each of the two doses (MTD and FED) for one of four different times (0.25 day, 1 day, 3 days, and 5 days), yielding a total of up to 24 animals per compound study. Vehicle choice was based on solubility of the compound, effect of food on adsorption, and the vehicles used in the literature reports examined during the FED selection investigations, described above. Generally, the route and vehicle in which the FED was defined are used. When there was a choice of routes and vehicles, oral routes were chosen over injection routes. Many compounds, especially oncolytics, are only administrable intravenously. In such cases, the compound was administered as an intravenous formulation into the tail vein. Orally administered compounds were given dissolved in either water, 1% carboxymethycellulose (CMC) or corn oil. Intravenously and intraperitoneally administered compounds were given in 0.9% saline. Subcutaneously administered compounds were given in corn oil. Animal body weights were determined at 1 day and, where appropriate, at 4 days, before necropsy, and clinical observations were made on a daily basis. Control animals were dosed with vehicle only. Three male animals were used for each dose and time combination used for the compound treatment.
Tissue harvest and handling: After the allocated treatment time, the tissues from the animals were harvested. […] All the tissues collected were divided to provide samples for histopathological analyses, and the remainder of each tissue was then snap-frozen. […] Preparation of enriched mRNA: Punch biopsies were taken from the frozen tissues and were completely homogenized before being processed using the MagNA Pure robot. (Roche Diagnostics Corp., Indianapolis, Ind.) in combination with the MagNA Pure LC RNA Isolation kit II (Roche Diagnostics Corp). The amount of lysis buffer was adjusted to allow 1 ml per 50 mg for liver tissue, or 1 ml per 80 mg for all other tissues.

leukocytes = test system: leukocytes
Description: (§1) Control animals were dosed with vehicle only.
The Leukocyte Depletion Signature was derived by analysis of a subset of data from about 2000 in vivo rat drug treatments (using about 300 individual drugs) representing multiple tissues; the method for creation of this dataset is described in the general methods section.

[2] = test system: Leukocyte Depletion Signature; assay: Signature Projection Score against the Leukocyte Depletion Signature, spleen gene expression data; type: in vivo, rat; conditions: maximum over treatments, normalized so highest training treatment = 100, * = p < 0.01, ** = p < 0.001
Description: as §1

[3] = time point 5 days, average of 3 animals, * = p < 0.01

Row | Structure (SMILES) | Max Bone Marrow Score (Signature Projection Score) [1] | Max Fold Serum Leukocyte Depletion (leukocytes; maximum over treatments) [fold] | Max Fold Serum Leukocyte Depletion (leukocytes; rat, in vivo) [fold] | Max Spleen Score (Signature Projection Score) [2] | Fold Decrease in leukocytes (leukocytes; [3]) | Fold Decrease in leukocytes (leukocytes; rat, in vivo)
1 | S=C=Nc1cccc2ccccc12 [1-NAPHTHYL ISOTHIOCYANATE] | 0 | 0 |  |  |  | 
2 | CN(C)c1nc(N(C)C)nc(N(C)C)n1 [ALTRETAMINE] | 3 |  | 0 | 5 |  | 
3 | Cn1cnc([N+](=O)[O-])c1Sc1ncnc2nc[nH]c12 [AZATHIOPRINE] | 11 |  | 0 | 19 |  | 
4 | CC(C)(c1ccc(O)cc1)c1ccc(O)cc1 [BISPHENOL A] | 0 |  | 0 | 3 |  | 
5 | Oc1c(Cl)cc(Cl)cc1Sc1cc(Cl)cc(Cl)c1O [BITHIONOL] | 4 |  | 0 | 2 |  | 
6 | CS(=O)(=O)OCCCCOS(C)(=O)=O [BUSULFAN] | 19 |  | 0 | 32* |  | 
7 | ClC(Cl)(Cl)Cl [CARBON TETRACHLORIDE] | 2 | 0 |  |  |  | 
8 | N.N.O=C([O-])C1(C(=O)[O-])CCC1.[Pt+2] [CARBOPLATIN] | 2 | 0 |  | 8 |  | 
9 | O=NN(CCCl)C(=O)NCCCl [CARMUSTINE] | 39* | 4.49 |  | 31* | 4.49* fold | 
10 | O=C(O)CCCc1ccc(N(CCCl)CCCl)cc1 [CHLORAMBUCIL] | 9 | 7.08 |  | 65* | 7.08* fold | 
11 | N.N.[Cl][Pt][Cl] [CISPLATIN] | 7 | 2.01 |  | 25* |  | 
12 | Nc1ccn([C@@H]2O[C@H](CO)[C@@H](O)[C@@H]2O)c(=O)n1 [CYTARABINE] | 2 |  | 2.85 | 15 |  | 
13 | COc1cccc2c1C(=O)c1c(O)c3c(c(O)c1C2=O)C[C@@](O)(C(C)=O)C[C@@H]3O[C@H]1C[C@H](N)[C@H](O)[C@H](C)O1 [DAUNORUBICIN] | 54* | 2.77 |  |  |  | 
14 | CC/C(=C(/CC)c1ccc(O)cc1)c1ccc(O)cc1 [DIETHYLSTILBESTROL] | 2 |  |  | 30* |  | 
15 | C[C@H]1O[C@@H](n2cc(F)c(=O)[nH]c2=O)[C@H](O)[C@@H]1O [DOXIFLURIDINE] | 56* |  | 0 |  |  | 
16 | COc1cccc2c1C(=O)c1c(O)c3c(c(O)c1C2=O)C[C@@](O)(C(=O)CO)C[C@@H]3O[C@H]1C[C@H](N)[C@H](O)[C@H](C)O1 [DOXORUBICIN] | 41* |  | 4.70 | 75** |  | 

Row | Structure (SMILES) | Max Bone Marrow Score (Signature Projection Score) [1] | Max Fold Serum Leukocyte Depletion (leukocytes; maximum over treatments) [fold] | Max Fold Serum Leukocyte Depletion (leukocytes; rat, in vivo) [fold] | Max Spleen Score (Signature Projection Score) [2] | Fold Decrease in leukocytes (leukocytes; [3]) | Fold Decrease in leukocytes (leukocytes; rat, in vivo)
17 | CCO [ETHANOL] | 2 |  | 0 |  |  | 
18 | COc1cc([C@@H]2c3cc4c(cc3[C@@H](O[C@@H]3O[C@@H]5CO[C@@H](C)O[C@H]5[C@H](O)[C@H]3O)[C@H]3COC(=O)[C@H]23)OCO4)cc(OC)c1O [ETOPOSIDE] | 43* |  | 2.04 | 47* |  | 
19 | NC(=O)NO [HYDROXYUREA] | 13 |  | 2.92 | 15 |  | 
20 | O=P1(NCCCl)OCCCN1CCCl (stereo not drawn) [IFOSFAMIDE] | 79** |  |  | 11 |  | 
21 | Cc1oncc1C(=O)Nc1ccc(C(F)(F)F)cc1 [LEFLUNOMIDE] | 7 |  | 2.89 | 34* |  | 
22 | O=NN(CCCl)C(=O)NC1CCCCC1 [LOMUSTINE] | 3 | 0 |  | 23* |  | 
23 | CN(Cc1cnc2nc(N)nc(N)c2n1)c1ccc(C(=O)N[C@@H](CCC(=O)O)C(=O)O)cc1 [METHOTREXATE] | 6 |  | 4.35 | 75** |  | 4.35* fold
24 | CO[C@@]12[C@H](COC(N)=O)C3=C(C(=O)C(C)=C(N)C3=O)N1C[C@@H]1N[C@@H]12 [MITOMYCIN C] | 7 | 3.53 |  | 57* | 3.53* fold | 
25 | COc1c(C)c2c(c(O)c1C/C=C(\C)CCC(=O)OCCN1CCOCC1)C(=O)OC2 [MYCOPHENOLATE MOFETIL] | 9 |  |  |  |  | 
26 | CN(C)C=O [N,N-DIMETHYLFORMAMIDE] | 0 |  |  | 3 |  | 
27 | CCN(CC)N=O [N-NITROSODIETHYLAMINE] | 7 |  |  | 0 |  | 
28 | O=C1[O][Pt]2([NH][C@@H]3CCCC[C@H]3[NH]2)[O]C1=O [OXALIPLATIN] | 14 | 2.18 |  |  |  | 
29 | Nc1nc2nc[nH]c2c(=S)[nH]1 [THIOGUANINE] | 24* |  | 3.63 | 100** |  | 3.63* fold
30 | CC[C@]1(O)C[C@@H]2CN(CCc3c([nH]c4ccccc34)[C@@](C(=O)OC)(c3cc4c(cc3OC)N(C)[C@H]3[C@@](O)(C(=O)OC)[C@H](OC(C)=O)[C@]5(CC)C=CCN6CC[C@]43[C@@H]65)C2)C1 [VINBLASTINE] | 11 |  |  |  |  | 
31 | CC[C@]1(O)C[C@H]2CN(CCc3c([nH]c4ccccc34)[C@@](C(=O)OC)(c3cc4c(cc3OC)N(C=O)[C@H]3[C@@](O)(C(=O)OC)[C@H](OC(C)=O)[C@]5(CC)C=CCN6CC[C@]43[C@@H]65)C2)C1 [VINCRISTINE] | 5 |  |  |  |  | 
32 | CCC1=C[C@@H]2CN(C1)Cc1c([nH]c3ccccc13)[C@@](C(=O)OC)(c1cc3c(cc1OC)N(C)[C@H]1[C@@](O)(C(=O)OC)[C@H](OC(C)=O)[C@]4(CC)C=CCN5CC[C@]31[C@@H]54)C2 [VINORELBINE] | 44* |  | 1.93 |  |  | 
